Literature values, collected in US20100254946A1, “MAINTENANCE OF HAIR GROWTH AND TREATMENT OF HAIR-LOSS” (LIFE & BRAIN GMBH, priority 2007, published 2010).
Entries after “also recorded” stand apart in the source; their conditions may differ.

Key:
[1] = target: T1, P2Y5 receptor (Homo sapiens, UniProt P43657)
T1 sequence (P43657 1-344): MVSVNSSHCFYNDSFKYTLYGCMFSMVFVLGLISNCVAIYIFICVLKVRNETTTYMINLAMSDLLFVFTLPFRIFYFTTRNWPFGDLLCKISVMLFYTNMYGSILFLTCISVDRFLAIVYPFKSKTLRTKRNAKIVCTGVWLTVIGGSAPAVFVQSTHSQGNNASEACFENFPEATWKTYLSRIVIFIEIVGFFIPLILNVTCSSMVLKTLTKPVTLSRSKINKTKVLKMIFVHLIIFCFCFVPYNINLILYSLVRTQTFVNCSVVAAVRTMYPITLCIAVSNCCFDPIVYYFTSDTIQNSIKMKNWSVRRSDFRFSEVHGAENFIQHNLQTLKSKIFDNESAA

[2] = target: T2, P2Y5 mutant p.Lys125AsnfsX37 (Homo sapiens, UniProt P43657); conditions: P2Y5 mutant p.Lys125AsnfsX37, LPA used as ligand
T2 construct: premature termination of translation of the P2Y5 receptor protein (p.Lys125AsnfsX37; expressed in transfected cells; vector pcDNA5/FRT/V5-His), transiently transfected with pCRE-luc
T2 sequence (P43657 with tags, fused parts or gaps): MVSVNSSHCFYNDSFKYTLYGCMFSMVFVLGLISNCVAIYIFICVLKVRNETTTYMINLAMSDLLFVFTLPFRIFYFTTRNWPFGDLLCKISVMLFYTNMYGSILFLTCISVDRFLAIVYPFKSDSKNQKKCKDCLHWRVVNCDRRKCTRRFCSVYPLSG

[3] = tested on: hair growth; conditions: mouse model, previously shown

CCCCCCCC/C=C\CCCCCCCC(=O)OC[C@@H](O)COP(=O)(O)O [LPA, oleoyl-L-alpha-lysophosphatidic acid]
ligand for the P2Y5 receptor [1]: is a ligand of the P2Y5 receptor; also recorded: is a ligand for the P2Y5 receptor | activation of a CRE luciferase reporter gene [2]: not capable of activating a CRE luciferase reporter gene | stimulation of hair growth [3]: stimulate hair growth in vivo
